From US20240400521A1, “QUINAZOLINE COMPOUND, COMPOSITION, AND APPLICATION THEREOF” (BEIJING SCITECH-MQ PHARMACEUTICALS LIMITED, priority 2021, published 2024)

Key:
EGFR^WT kinase = molecular target: T1, EGFR^WT kinase (Homo sapiens, UniProt P00533); assay: EGFR^WT kinase assay (ULight peptide / Eu-PT66 antibody detection); assay type: biochemical
T1 construct: purchased Carna Biosciences 08-115
Source text: (§1) Reagents and consumables: ULight™-labeled Ploy GT Peptide (Perkin Elmer, Cat. No. TRF-0100-M); ULight™-labeled JAK-1 (Try1023) Peptide (Perkin Elmer, Cat. No. TRF-0121-M); Eu-W1024-labeled Anti-Phosphotyrosine Antibody (PT66) (Perkin Elmer, Cat. No. AD0068); 10×Detection Buffer (Perkin Elmer, Cat. No. CR97-100); HER2 Kinase (Carna Biosciences, Cat. No. 08-016); EGFR kinase (Carna Biosciences, Cat. No. 08-115); HEPES (GIBCO, Cat. No. 15630-080); EGTA (Sigma, Cat. No. 03777-10G); EDTA (Sigma, Cat. No. EDS-100G); MgCl2 (Sigma, Cat. No. 63069-100ML); DTT (Sigma, Cat. No. 43816-10ML); Tween-20 (Sigma, Cat. No. P7949-100ML); DMSO (Life Science, Cat. No. 0231-500ML); 384-well plates (Perkin Elmer, Cat. No. 607290); multifunctional plate reader (Perkin Elmer, Cat. No. Envision)
(§2) Preparation of compound solution: The assay compound was dissolved in DMSO to form a 10 mM stock solution. Prior to use, the compound was diluted to 0.25 mM in DMSO (100 times the final concentration of the diluent) and then subjected to a 3-fold concentration gradient dilution to obtain a total of 11 concentrations. The solution was diluted with buffer to a diluent with 4× the final concentration when the drug was added.
(§3) EGFR^WT kinase assay: buffer was prepared, and 3.48 nM 4× EGFR kinase solution, 600 μM 4× ATP solution, and 400 nM 4×ULight™-labeled JAK-1 (Try1023) Peptide substrate solution was prepared using the buffer. After the preparation was completed, the enzyme was mixed with different concentrations of compounds pre-prepared by dilution, and the mixture was left to stand at room temperature for 5 min. Each concentration was performed in duplicate. The corresponding substrate and ATP were added and the mixture was reacted at room temperature for 120 minutes (with negative and positive controls). After completion of the reaction, PT66 detection antibody was added. The mixture was incubated at room temperature for 60 minutes, and then detected by Envision.
(§4) Data Calculation: the reading of well and inhibition rate were calculated using Excel, wherein reading of well=10000*(well EU665 value)/(well EU615 value), and inhibition rate=[(reading of positive control well−reading of assay well)/(reading of positive control well−reading of negative control well)]*100%. Compound concentrations and corresponding inhibition rates were input into GraphPad Prism for processing to calculate IC50 values.

[1] = molecular target: Ba/F3 EGFR D770_N771insSVD cells (Homo sapiens, UniProt P00533, DUP768-770, cells depend on it); assay: Inhibition of cell proliferation, CTG method, Ba/F3 EGFR D770_N771insSVD; assay type: cell-based; settings: 72 hours, read-out: Ba/F3 EGFR D770_N771insSVD IC50
Chain of Ba/F3 EGFR D770_N771insSVD cells (P00533 with tags, fused parts or gaps DUP768-770): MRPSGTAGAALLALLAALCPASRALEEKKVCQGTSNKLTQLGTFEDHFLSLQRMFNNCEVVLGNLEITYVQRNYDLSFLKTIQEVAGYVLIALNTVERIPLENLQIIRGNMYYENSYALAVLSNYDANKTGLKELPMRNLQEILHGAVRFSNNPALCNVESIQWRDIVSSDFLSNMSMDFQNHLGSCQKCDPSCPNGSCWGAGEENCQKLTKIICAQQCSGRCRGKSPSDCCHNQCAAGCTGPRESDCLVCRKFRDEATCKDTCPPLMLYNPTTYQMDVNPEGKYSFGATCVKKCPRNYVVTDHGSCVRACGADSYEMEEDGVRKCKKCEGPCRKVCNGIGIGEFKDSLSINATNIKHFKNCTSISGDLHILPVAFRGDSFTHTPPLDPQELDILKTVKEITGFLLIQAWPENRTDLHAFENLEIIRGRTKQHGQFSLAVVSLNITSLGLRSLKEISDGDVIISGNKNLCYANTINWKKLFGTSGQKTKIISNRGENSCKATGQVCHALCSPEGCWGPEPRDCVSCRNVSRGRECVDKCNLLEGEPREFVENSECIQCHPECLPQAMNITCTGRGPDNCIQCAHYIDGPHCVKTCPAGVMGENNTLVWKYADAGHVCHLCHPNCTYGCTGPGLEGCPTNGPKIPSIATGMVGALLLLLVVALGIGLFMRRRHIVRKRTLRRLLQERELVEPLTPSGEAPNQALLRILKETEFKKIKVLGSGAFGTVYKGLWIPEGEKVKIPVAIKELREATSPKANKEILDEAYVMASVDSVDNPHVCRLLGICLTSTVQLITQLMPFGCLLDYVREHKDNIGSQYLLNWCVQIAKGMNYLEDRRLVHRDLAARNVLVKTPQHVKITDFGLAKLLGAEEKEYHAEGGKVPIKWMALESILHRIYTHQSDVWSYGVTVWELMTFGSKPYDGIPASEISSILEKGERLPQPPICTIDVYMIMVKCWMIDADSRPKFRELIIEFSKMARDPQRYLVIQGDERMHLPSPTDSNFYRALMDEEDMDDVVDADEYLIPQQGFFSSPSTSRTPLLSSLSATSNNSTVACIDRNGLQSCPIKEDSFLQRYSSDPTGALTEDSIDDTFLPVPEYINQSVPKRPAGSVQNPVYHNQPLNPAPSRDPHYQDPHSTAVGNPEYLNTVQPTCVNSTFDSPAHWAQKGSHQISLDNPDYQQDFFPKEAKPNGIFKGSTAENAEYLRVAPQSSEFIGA
Source text: (§5) The present application examined the in vitro anti-proliferative activity of the compounds of the present disclosure against in vitro cultured HCC-827, Ba/F3-EGFR-VIII and Ba/F3 EGFR D770_N771insSVD cell lines by CTG method.
(§6) Reagents and consumables: RPMI1640 (ThermoFisher, Cat. No. C11875500BT); DMEM (ThermoFisher, C11995500BT); fetal bovine serum (Hyclone, Cat. No. SV30087.03); 0.25% trypsin-EDTA (ThermoFisher, Cat. No. 25200072); penicillin-streptomycin (Hyclone, Cat. No. SV30010); DMSO (Life Science, Cat. No. 0231-500ML); CTG assay kit (Promega, Cat. No. G9243); 96-well plate (Corning, Cat. No. 3599); multifunctional plate reader (Perkin Elmer, Cat. No. Envision)
(§7) Cell lines: HCC-827 (from ATCC), Ba/F3-EGFR-VIII and Ba/F3 EGFR D770_N771insSVD (all from KYinno Biotechnology (Beijing) Co., Ltd.); all of the above cells were cultured with RPMI1640 medium containing 10% fetal bovine serum, 100 U/mL penicillin, and 100 μg/mL streptomycin in the culture process, and HCC-827 was cultured with DMEM medium containing 10% fetal bovine serum, 100 U/mL penicillin, and 100 μg/mL streptomycin.
(§8) • 1. The assay compound was dissolved with DMSO to form a stock solution and a gradient dilution was performed, followed by dilution with the corresponding medium to obtain a solution with 5-fold working concentration. • 2. Cells in logarithmic growth phase were adjusted to specific cell densities by dilution with culture medium, and 80 μL of cell suspension was added to a 96-well plate, such that plating densities of cells of HCC-827, Ba/F3-EGFR-VIII and Ba/F3 EGFR D770_N771insSVD were all 3000 cells/well. The cells of Ba/F3-EGFR-VIII and Ba/F3 EGFR D770_N771insSVD were used directly in the next step (treatment with compound), whereas the HCC-827 needed to be cultured overnight in a 37° C., 5% carbon dioxide gas incubator to adhere to the wall, and then treated with compounds. • 3. 20 μL of compound solution was added to each well of the 96-well plate that had been inoculated with cells. The highest concentration of the assayed compound was 10 μM, 4-fold serial dilution, a total of 9 concentrations, and duplicate wells. A control group without compound was also set up. • 4. The cells were cultured for another 72 hours, and then cell viability was detected by CTG assay kit. Signal values were read with a multifunctional plate reader (Perkin Elmer). GraphPad Prism software was used to create a dose-response curve and IC50 was calculated.

Ba/F3-EGFR-VIII cells = Ba/F3-EGFR-VIII cells (Homo sapiens, UniProt P00533, DELINS30-297G, cells depend on it); assay: Inhibition of cell proliferation, CTG method, Ba/F3-EGFR-VIII; assay type: cell-based; settings: 72 hours, read-out: Ba/F3 EGFRvIII IC50
Chain of Ba/F3-EGFR-VIII cells (P00533 with tags, fused parts or gaps DELINS30-297G): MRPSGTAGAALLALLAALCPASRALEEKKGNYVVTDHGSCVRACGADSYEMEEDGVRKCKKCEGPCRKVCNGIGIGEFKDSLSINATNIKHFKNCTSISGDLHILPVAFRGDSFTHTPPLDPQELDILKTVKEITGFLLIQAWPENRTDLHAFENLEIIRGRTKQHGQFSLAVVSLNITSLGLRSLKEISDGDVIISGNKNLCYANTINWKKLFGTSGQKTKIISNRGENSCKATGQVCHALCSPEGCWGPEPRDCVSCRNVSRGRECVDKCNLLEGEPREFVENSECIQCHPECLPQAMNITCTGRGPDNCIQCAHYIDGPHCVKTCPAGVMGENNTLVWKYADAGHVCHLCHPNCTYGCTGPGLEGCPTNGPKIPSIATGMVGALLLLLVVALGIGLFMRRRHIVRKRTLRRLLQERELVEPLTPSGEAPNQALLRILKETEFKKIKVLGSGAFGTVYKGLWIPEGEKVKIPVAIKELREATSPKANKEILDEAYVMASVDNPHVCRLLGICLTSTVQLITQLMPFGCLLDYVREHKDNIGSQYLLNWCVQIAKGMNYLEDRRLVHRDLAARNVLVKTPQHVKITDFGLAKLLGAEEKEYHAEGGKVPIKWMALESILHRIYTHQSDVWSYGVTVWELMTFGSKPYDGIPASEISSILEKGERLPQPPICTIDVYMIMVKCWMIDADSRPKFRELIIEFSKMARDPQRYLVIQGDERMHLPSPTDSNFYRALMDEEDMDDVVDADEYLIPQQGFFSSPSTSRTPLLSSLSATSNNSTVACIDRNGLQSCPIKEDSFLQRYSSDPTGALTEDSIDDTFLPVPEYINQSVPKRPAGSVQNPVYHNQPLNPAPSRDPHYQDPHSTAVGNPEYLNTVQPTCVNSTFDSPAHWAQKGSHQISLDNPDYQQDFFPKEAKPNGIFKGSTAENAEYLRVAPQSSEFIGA
Source text: as §5, §6, §7, §8

HER2 kinase = molecular target: T2, HER2 kinase (Homo sapiens, UniProt P04626); assay: HER2 kinase assay (ULight peptide / Eu-PT66 antibody detection); assay type: biochemical
T2 construct: purchased Carna Biosciences 08-016
T2 sequence (P04626 23-1255): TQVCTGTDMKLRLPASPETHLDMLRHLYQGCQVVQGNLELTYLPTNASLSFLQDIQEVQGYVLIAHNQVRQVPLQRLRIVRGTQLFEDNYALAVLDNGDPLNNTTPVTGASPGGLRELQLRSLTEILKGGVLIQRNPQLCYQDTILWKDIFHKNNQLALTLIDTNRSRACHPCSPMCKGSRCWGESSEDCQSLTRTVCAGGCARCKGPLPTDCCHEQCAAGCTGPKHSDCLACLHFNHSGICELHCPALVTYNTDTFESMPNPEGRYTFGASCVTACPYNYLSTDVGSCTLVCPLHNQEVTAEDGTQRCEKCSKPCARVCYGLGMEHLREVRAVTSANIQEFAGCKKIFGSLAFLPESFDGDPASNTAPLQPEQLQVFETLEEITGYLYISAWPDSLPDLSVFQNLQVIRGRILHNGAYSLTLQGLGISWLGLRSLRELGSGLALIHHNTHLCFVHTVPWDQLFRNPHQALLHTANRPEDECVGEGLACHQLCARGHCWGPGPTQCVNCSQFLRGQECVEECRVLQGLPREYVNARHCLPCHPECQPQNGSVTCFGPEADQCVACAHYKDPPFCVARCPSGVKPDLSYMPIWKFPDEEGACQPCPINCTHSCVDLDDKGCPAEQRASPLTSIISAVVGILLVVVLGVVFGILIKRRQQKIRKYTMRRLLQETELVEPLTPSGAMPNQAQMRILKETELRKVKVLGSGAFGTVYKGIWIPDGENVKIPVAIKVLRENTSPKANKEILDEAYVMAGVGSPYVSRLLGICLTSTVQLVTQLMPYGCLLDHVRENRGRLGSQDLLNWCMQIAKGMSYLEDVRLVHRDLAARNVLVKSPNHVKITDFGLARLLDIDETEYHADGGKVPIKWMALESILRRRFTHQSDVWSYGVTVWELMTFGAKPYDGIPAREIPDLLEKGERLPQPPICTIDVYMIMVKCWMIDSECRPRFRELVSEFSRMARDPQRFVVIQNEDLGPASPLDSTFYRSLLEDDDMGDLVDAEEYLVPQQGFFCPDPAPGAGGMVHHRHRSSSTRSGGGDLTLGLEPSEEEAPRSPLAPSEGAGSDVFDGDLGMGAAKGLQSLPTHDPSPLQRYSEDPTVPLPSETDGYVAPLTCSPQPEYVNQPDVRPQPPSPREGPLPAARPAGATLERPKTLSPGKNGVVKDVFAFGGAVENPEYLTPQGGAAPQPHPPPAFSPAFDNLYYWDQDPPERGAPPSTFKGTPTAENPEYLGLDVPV
Source text: as §1, §2
as §3, with “HER2 kinase” for “EGFR^WT kinase”, “and 40” for “and 3.48”, “4× HER2” for “4× EGFR”, “solution, 40” for “solution, 600”, “4×ULight™-labeled Ploy GT” for “4×ULight™-labeled JAK-1 (Try1023)”, “solution were” for “solution was”
as §4

HCC-827 cells = assay: Inhibition of cell proliferation, CTG method, HCC-827; assay type: cell-based; settings: Homo sapiens, HCC827, 72 hours
Source text: as §5, §6, §7, §8

T1 sequence (P00533 25-1210): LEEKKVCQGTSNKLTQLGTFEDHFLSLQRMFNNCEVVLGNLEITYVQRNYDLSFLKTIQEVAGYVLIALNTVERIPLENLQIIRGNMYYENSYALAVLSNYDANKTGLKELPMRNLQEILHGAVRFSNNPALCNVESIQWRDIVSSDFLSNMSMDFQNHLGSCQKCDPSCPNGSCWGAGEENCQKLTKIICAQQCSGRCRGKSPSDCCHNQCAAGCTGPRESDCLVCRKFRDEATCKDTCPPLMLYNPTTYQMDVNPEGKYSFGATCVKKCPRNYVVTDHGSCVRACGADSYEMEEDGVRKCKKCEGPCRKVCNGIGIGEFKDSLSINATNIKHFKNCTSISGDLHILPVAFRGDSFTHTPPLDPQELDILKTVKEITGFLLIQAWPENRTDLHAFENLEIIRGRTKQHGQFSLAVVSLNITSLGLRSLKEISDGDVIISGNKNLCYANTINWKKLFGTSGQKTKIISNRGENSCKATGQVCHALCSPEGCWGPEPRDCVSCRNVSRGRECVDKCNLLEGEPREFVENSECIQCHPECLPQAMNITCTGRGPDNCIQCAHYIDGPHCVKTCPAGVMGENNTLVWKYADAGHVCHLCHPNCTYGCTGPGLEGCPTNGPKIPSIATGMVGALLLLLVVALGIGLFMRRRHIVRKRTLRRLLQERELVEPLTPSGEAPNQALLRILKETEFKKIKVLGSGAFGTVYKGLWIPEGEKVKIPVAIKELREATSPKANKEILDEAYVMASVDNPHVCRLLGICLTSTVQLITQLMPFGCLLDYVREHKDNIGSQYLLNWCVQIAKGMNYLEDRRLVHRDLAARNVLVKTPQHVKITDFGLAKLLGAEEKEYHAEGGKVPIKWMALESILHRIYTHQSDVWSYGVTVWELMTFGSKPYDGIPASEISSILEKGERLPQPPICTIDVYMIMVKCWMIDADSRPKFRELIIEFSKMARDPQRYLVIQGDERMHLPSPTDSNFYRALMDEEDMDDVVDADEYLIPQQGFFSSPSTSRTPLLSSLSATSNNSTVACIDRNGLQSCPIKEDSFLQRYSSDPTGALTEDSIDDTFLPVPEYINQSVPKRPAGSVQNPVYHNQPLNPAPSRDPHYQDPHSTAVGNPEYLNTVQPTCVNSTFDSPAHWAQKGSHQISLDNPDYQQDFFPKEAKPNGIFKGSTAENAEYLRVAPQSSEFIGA

Row | Compound | IC50 (EGFR^WT kinase) [nM] | GI50 [1] [nM] | GI50 (Ba/F3-EGFR-VIII cells) [nM] | IC50 (HER2 kinase) [nM] | IC50 (HCC-827 cells) [nM]
1 | CN(C)C/C=C/C(=O)Nc1ccc2ncnc(Nc3cccc(Cl)c3F)c2c1OCCCO [Example 11, (E)-N-(4-((3-chloro-2-fluorophenyl)amino)-5-(3-hydroxypropoxy)quinazolin-6-yl)-4-(dimethylamino)but-2-enamide] | ≤ 1 | 50 to 500 | ≤ 5 | 100 to 1000 | ≤ 5
2 | COCCOc1c(NC(=O)/C=C/CN(C)C)ccc2ncnc(Nc3cccc(Cl)c3F)c12 [Example 3, (E)-N-(4-((3-chloro-2-fluorophenyl)amino)-5-(2-methoxyethoxy)quinazolin-6-yl)-4-(dimethylamino)but-2-enamide] | ≤ 1 | 50 to 500 | ≤ 5 | 10 to 100 | ≤ 5
3 | CN(C)C/C=C/C(=O)Nc1ccc2ncnc(Nc3cccc(Cl)c3F)c2c1OCCF [Example 4, (E)-N-(4-((3-chloro-2-fluorophenyl)amino)-5-(2-fluoroethoxy)quinazolin-6-yl)-4-(dimethylamino)but-2-enamide] | ≤ 1 | 50 to 500 | 5 to 50 | 10 to 100 | ≤ 5
4 | COCCCOc1c(NC(=O)/C=C/CN(C)C)ccc2ncnc(Nc3cccc(Cl)c3F)c12 [Example 6, (E)-N-(4-((3-chloro-2-fluorophenyl)amino)-5-(3-methoxypropoxy)quinazolin-6-yl)-4-(dimethylamino)but-2-enamide] | ≤ 1 | 50 to 500 | 5 to 50 | 100 to 1000 | ≤ 5
5 | CN(C)C/C=C/C(=O)Nc1ccc2ncnc(Nc3cccc(Cl)c3F)c2c1OCCO [Example 5, (E)-N-(4-((3-chloro-2-fluorophenyl)amino)-5-(2-hydroxyethoxy)quinazolin-6-yl)-4-(dimethylamino)but-2-enamide] | ≤ 1 | 5 to 50 | ≤ 5 | 10 to 100 | ≤ 5

Now from value to compound:

Row | IC50 (EGFR^WT kinase) [nM] | GI50 [1] [nM] | GI50 (Ba/F3-EGFR-VIII cells) [nM] | IC50 (HER2 kinase) [nM] | IC50 (HCC-827 cells) [nM] | Compound
6 | ≤ 1 | 50 to 500 | ≤ 5 | 10 to 100 | ≤ 5 | CN(C)C/C=C/C(=O)Nc1ccc2ncnc(Nc3cccc(Cl)c3F)c2c1OCC(C)(C)O [Example 13, (E)-N-(4-((3-chloro-2-fluorophenyl)amino)-5-(2-hydroxy-2-methylpropoxy)quinazolin-6-yl)-4-(dimethylamino)but-2-enamide]
7 | ≤ 1 | 50 to 500 | 5 to 50 | 10 to 100 | ≤ 5 | CN(C)C/C=C/C(=O)Nc1ccc2ncnc(Nc3cccc(Cl)c3F)c2c1OCC(F)(F)F [Example 16, (E)-N-(4-((3-chloro-2-fluorophenyl)amino)-5-(2,2,2-trifluoroethoxy)quinazolin-6-yl)-4-(dimethylamino)but-2-enamide]
8 | ≤ 1 | 50 to 500 | 5 to 50 | 10 to 100 | ≤ 5 | CN(C)C/C=C/C(=O)Nc1ccc2ncnc(Nc3cccc(Cl)c3F)c2c1OCCCF [Example 15, (E)-N-(4-((3-chloro-2-fluorophenyl)amino)-5-(3-fluoropropoxy)quinazolin-6-yl)-4-(dimethylamino)but-2-enamide]
9 | ≤ 1 | 50 to 500 | 5 to 50 | 100 to 1000 | ≤ 5 | CN(C)C/C=C/C(=O)Nc1ccc2ncnc(Nc3cccc(Cl)c3F)c2c1OCCC(F)(F)F [Example 18, (E)-N-(4-((3-chloro-2-fluorophenyl)amino)-5-(3,3,3-trifluoropropoxy)quinazolin-6-yl)-4-(dimethylamino)but-2-enamide]
